Results taken from paper PMC7951571 (Heliyon, 2021).
Like-named read-outs stand apart in the source and are kept apart here. Residues, ends and D or L forms follow the SMILES beside them. *: point of attachment. Cbz = O=C(OCc1ccccc1)*; CH2F = FC*

Assays:
[1] = target: recombinant human ACE2 (rhACE2) (Homo sapiens, UniProt Q9BYF1); assay: ACE2 inhibitor screening assay; assay type: biochemical
[2] = target: rhACE2 - SARS-CoV-2 Spike (RBD) protein interaction (Homo sapiens, UniProt Q9BYF1); assay: biochemical; assay type: binding, human; SARS-CoV-2
Chain of rhACE2 - SARS-CoV-2 Spike (RBD) protein interaction (Q9BYF1 18-740): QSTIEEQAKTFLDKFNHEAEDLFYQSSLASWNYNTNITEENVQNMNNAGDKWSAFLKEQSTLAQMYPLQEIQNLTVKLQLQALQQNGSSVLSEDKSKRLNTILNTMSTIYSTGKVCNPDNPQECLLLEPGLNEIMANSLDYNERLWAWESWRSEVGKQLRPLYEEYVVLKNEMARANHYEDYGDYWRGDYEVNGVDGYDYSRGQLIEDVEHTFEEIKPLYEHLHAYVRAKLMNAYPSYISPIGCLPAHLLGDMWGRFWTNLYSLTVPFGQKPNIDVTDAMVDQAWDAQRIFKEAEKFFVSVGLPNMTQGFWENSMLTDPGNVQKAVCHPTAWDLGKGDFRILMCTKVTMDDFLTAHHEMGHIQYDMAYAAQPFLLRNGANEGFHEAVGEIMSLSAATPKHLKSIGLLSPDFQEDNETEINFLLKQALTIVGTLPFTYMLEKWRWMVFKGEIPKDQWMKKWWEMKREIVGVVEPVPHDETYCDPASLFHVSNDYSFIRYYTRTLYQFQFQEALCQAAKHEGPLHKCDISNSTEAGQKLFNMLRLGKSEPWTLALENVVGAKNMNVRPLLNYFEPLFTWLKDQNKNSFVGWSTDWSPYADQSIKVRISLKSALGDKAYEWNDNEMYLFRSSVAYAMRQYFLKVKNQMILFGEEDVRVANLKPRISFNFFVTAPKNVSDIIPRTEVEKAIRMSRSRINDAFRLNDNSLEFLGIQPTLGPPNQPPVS

Vero E6 cells = conditions: for Concentration at Maximum % Viability: monkey
in vitro = conditions: African green monkey
SARS-CoV-2 USA_WA1/2020 = assay type: cell-based
[3] = test system: ACE2-Spike interaction (SARS-CoV, SARS-CoV2, NL63S); conditions: cited from earlier work
[4] = Spike (RBD)-ACE2 Interaction Assay IC50_1
[5] = Spike (RBD)-ACE2 Interaction Assay IC50_2

Chain of recombinant human ACE2 (rhACE2) (Q9BYF1 18-805): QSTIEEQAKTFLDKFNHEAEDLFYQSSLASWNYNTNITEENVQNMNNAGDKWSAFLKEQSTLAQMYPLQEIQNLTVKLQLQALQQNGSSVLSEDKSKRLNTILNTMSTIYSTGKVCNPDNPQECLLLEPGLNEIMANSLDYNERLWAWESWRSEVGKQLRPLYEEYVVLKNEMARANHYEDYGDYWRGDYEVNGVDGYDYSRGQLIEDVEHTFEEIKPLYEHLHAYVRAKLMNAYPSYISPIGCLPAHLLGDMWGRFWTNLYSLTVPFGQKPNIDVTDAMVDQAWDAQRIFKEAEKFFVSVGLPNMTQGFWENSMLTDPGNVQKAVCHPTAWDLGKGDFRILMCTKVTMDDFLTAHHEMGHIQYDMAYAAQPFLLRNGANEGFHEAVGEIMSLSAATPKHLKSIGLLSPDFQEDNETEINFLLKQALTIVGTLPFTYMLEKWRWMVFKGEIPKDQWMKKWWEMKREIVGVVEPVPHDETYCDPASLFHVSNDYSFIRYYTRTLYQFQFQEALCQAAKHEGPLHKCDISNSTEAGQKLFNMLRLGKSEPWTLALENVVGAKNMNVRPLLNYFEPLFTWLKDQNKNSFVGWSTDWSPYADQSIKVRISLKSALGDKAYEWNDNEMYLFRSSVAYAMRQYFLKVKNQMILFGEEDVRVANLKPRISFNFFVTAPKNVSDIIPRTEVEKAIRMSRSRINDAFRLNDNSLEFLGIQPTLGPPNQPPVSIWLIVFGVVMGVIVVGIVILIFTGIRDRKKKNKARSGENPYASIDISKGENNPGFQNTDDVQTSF

Oc1c(Br)cc(Cl)c2cccnc12 [CLBQ14, 7-bromo-5-chloro-8-hydroxyquinoline] gave an IC50 [1] of 5.55 µM, an IC50 [2, 4] of 2.76 µM and an IC50 [2, 5] of 3.06 µM. The “Concentration at Minimum % Viability” value (Vero E6 cells; African green monkey) was 15000 nM, the “Concentration at Maximum % Viability” value (Vero E6 cells) was 120 nM and the CC50 (in vitro) was > 30 µM. The viability (in vitro; Maximum Viability (%)) was 108% and the viability (in vitro; Minimum Viability (%)) was 53.5%.
With Oc1c(Cl)cc(Cl)c2cccnc12 [CLCQ, 5,7-dichloro-8-hydroxyquinoline] the IC50 [1] was < 10 µM, the IC50 [2, 4] was 1.74 µM and the IC50 [2, 5] was 1.91 µM. For the same compound, the “Concentration at Minimum % Viability” value (Vero E6 cells; African green monkey) was 15000 nM, the “Concentration at Maximum % Viability” value (Vero E6 cells) was 60 nM and the CC50 (in vitro) was > 30 µM. For the same compound, the viability (in vitro; Maximum Viability (%)) was 102% and the viability (in vitro; Minimum Viability (%)) was 60.8%.
With Oc1c(I)cc(Cl)c2cccnc12 [CLQ, 5-chloro-7-iodo-8-quinolinol] the IC50 [2, 4] was 0.85 µM, the “Concentration at Minimum % Viability” value (Vero E6 cells; African green monkey) was 30000 nM and the “Concentration at Maximum % Viability” value (Vero E6 cells) was 230 nM. The CC50 (in vitro) was > 30 µM, the viability (in vitro; Maximum Viability (%)) was 106% and the viability (in vitro; Minimum Viability (%)) was 61.8%.
For CC(C)C[C@H](NC(=O)OCc1ccccc1)C(=O)N[C@@H](CC(C)C)C(=O)N[C@@H](Cc1ccc(O)cc1)C(=O)CF [Calpain Inhibitor IV] (Cbz-Leu-Leu-Tyr-CH2F), the “Maximum Inhibition (%)” value (SARS-CoV-2 USA_WA1/2020) was 95.75%, the IC50 (SARS-CoV-2 USA_WA1/2020; read-out: IC50, SARS-CoV-2 induced CPE) was 0.41 µM and the CC50 (Vero E6 cells) was > 7.17 µM. The “Concentration at Minimum % Viability” value (Vero E6 cells) was 3590 nM, the “Maximum Viability (%)” value (Vero E6 cells) was 104.99% and the “Minimum Viability (%)” value (Vero E6 cells) was 98.29%. The “Concentration at Maximum % Viability” value (Vero E6 cells) was 220 nM.
For CCN(CC)CCCC(C)Nc1ccnc2cc(Cl)ccc12 (stereo not shown) [Chloroquine], the “Maximum Inhibition (%)” value (SARS-CoV-2 USA_WA1/2020) was 111.08%, the “Concentration at Minimum % Viability” value (Vero E6 cells; African green monkey) was 15000 nM and the “Concentration at Maximum % Viability” value (Vero E6 cells) was 60 nM. The CC50 (in vitro) was > 30 µM, the viability (in vitro; Maximum Viability (%)) was 107% and the viability (in vitro; Minimum Viability (%)) was 95.6%.
For CCOC(=O)[C@H]1O[C@@H]1C(=O)N[C@@H](CC(C)C)C(=O)NCCC(C)C [E64d (Aloxistatin), Aloxistatin], the “Maximum Inhibition (%)” value (SARS-CoV-2 USA_WA1/2020) was 98.55%, the “Concentration at Minimum % Viability” value (Vero E6 cells; African green monkey) was 15000 nM and the “Concentration at Maximum % Viability” value (Vero E6 cells) was 120 nM. The CC50 (in vitro) was > 30 µM, the viability (in vitro; Maximum Viability (%)) was 113% and the viability (in vitro; Minimum Viability (%)) was 100%.
For CCN(CCO)CCCC(C)Nc1ccnc2cc(Cl)ccc12 (stereo not shown) [Hydroxychloroquine], the “Maximum Inhibition (%)” value (SARS-CoV-2 USA_WA1/2020) was 93.14%, the “Concentration at Minimum % Viability” value (Vero E6 cells; African green monkey) was 3750 nM and the “Concentration at Maximum % Viability” value (Vero E6 cells) was 60 nM. The CC50 (in vitro) was > 30 µM, the viability (in vitro; Maximum Viability (%)) was 104% and the viability (in vitro; Minimum Viability (%)) was 96.9%.
For CC(C)C[C@H](N[C@@H](Cc1cncn1Cc1cc(Cl)cc(Cl)c1)C(=O)O)C(=O)O [MLN-4760, (S,S)-2-{1-Carboxy-2-[3-(3,5-dichloro-benzyl)-3H-imidazol-4-yl]-ethylamino}-4-methyl-pentanoic acid], the “disruption of ACE2-Spike interaction” value [3] is listed as “does not disrupt ACE2-Spike interaction”.
For CCC(CC)COC(=O)[C@H](C)N[P@](=O)(OC[C@H]1O[C@@](C#N)(c2ccc3c(N)ncnn23)[C@H](O)[C@@H]1O)Oc1ccccc1 [Remdesivir], the “Maximum Inhibition (%)” value (SARS-CoV-2 USA_WA1/2020) was 100.27%, the “Concentration at Minimum % Viability” value (Vero E6 cells; African green monkey) was 3750 nM and the “Concentration at Maximum % Viability” value (Vero E6 cells) was 60 nM. The CC50 (in vitro) was > 30 µM, the viability (in vitro; Maximum Viability (%)) was 104% and the viability (in vitro; Minimum Viability (%)) was 97.5%.
In the case of [Cl-].[Cl-].[Zn+2] [ZnCl2, Zinc Chloride], the “exopeptidase activity of rhACE2 in the presence of ZnCl2 alone” value ([1]; 100μM to 100nM) is reported as “increasing exopeptidase activity”.
